Experiments:
[1] = system: C. acnes strain ATCC 6919; assay: Storage stability: bactericidal activity after thawing from -80 °C and four weeks at 4 °C; assay type: physicochemical, Cutibacterium acnes; conditions: thawed from -80 °C, stored four weeks at 4 °C; read-out bactericidal activity at 25 μg/mL against C. acnes ATCC 6919
Description: (§1) Temperature-based killing assays were performed by initially thawing a frozen aliquot of P156, which was then stored at 4 °C for a month. This was the only experiment where an aliquot of a lysin-derived peptide was stored for an extended period of time at a temperature other than −80 °C. Next, C. acnes strain ATCC 6919 was treated with the above-mentioned P156 aliquot in buffer at 15 °C to 40 °C. For these experiments, separate aliquots of both the bacteria at 10^6 CFU/mL and peptide at 50 μg/mL were initially equilibrated to the temperature being assayed for 5 min in 1.7 mL microcentrifuge tubes using an EchoTherm chilling/heating plate (Torrey Pines Scientific, Carlsbad, CA, USA). The bacteria and peptide were then mixed together 1:1 in a microcentrifuge tube, yielding respective final concentrations of 5 × 10^5 CFU/mL and 25 μg/mL, and subsequently incubated in the chilling/heating plate for 1 h.

S. aureus = assay: One-hour killing assay against S. aureus (aerobic or anaerobic growth); assay type: cell-based, Staphylococcus aureus; conditions: 20 mM Tris, pH 7.2, 1 h, 37 °C
Description: (§2) Bacterial strains used in this study are outlined in Table 2 and were stored at −80 °C. C. acnes strains were grown in a BACTRON900 anaerobic chamber (Sheldon Manufacturing Inc., Cornelius, OR, USA) at 37 °C to exponential phase in reduced Trypticase Soy Broth (rTSB, BD Biosciences, Franklin Lakes, NJ, USA) supplemented with 2% (v/v) glycerol. S. aureus strains were grown either aerobically or anaerobically at 37 °C to the exponential phase in TSB (aerobic growth) or rTSB (anaerobic growth).
(§3) Unless stated otherwise, the standard conditions for killing assays involved statically treating exponential phase bacteria at approximately 5 × 10^5 CFU/mL with a lysin-derived peptide at 25 μg/mL in a 96-well microtiter plate under aerobic (S. aureus) or anaerobic conditions (C. acnes and S. aureus) in 20 mM Tris (Fisher Scientific), pH 7.2, for 1 h at 37 °C. For dose–response killing assays, peptide concentrations ranging from 1 up to 125 μg/mL were tested.
(§4) Each killing assay comprised an untreated control (bacteria absent peptide) for every condition tested. After 1 h, 100 μL directly from the sample, as well as 5 μL of each dilution from a 10-fold serial dilution, were plated on either TSB agar (for S. aureus killing assays using aerobic conditions), rTSB agar (for S. aureus killing assays using anaerobic conditions), or rTSB agar with 2% glycerol (for C. acnes killing assays) in order to quantitate bacterial viability. The LOD for each experiment was 10 CFU/mL, with one exception. For the dose–response killing assay evaluating the collection of peptides against C. acnes, only the 10-fold serial dilutions from each sample were plated, resulting in an LOD of 200 CFU/mL. Experiments performed under anaerobic conditions used agar plates that were reduced overnight. Additionally, buffers for these particular assays were made fresh the day of the experiment and reduced for 2 h prior to use. Error bars correspond to the standard error of the mean (SEM) of two or three biological replicates. For statistical analysis, p-values were calculated using an unpaired t-test due to each lysin or peptide dose being compared individually to the untreated group. Additionally, to ensure clarity in presenting statistical significance, we used three types of statistical markers to highlight differences: ns, not significant, * p < 0.05 and a <3-log CFU reduction (with respect to the untreated group), ** p < 0.05 and a ≥3-log CFU reduction (with respect to the untreated group).

C. acnes = assay: One-hour killing assay against C. acnes (dose-response; temperature, pH and NaCl variations); assay type: cell-based, Cutibacterium acnes
Description: as §2, §3
To evaluate the effect salt has on the antibacterial activity of the peptide, C. acnes strain ATCC 6919 was treated with P156 in buffer supplemented with 0-500 mM NaCl. The bactericidal potency of P156 in a broad pH range was assayed by treating C. acnes strain ATCC 6919 with the peptide in either 20 mM 2-(N-morpholino) ethanesulfonic acid (MES, pH 5.5–6.5; Fisher Scientific), sodium phosphate buffer (NaPO4, pH 6.5–7.0), or Tris (pH 7.0–8.0).
as §1, §4

S. aureus strain USA300 = assay: One-hour killing assay with or without retinoic acid; assay type: cell-based, Staphylococcus aureus; conditions: MRSA USA300, 1 h, Tris pH 7.2, 37 °C, triplicate
Description: as §3
For measuring the effect of retinoid on peptide bactericidal activity, S. aureus strain USA300 at 10^6 CFU/mL was treated with or without P156 at 25 μg/mL in buffer supplemented with all-trans-retinoic acid (Sigma-Aldrich) at 0.01–0.1% (w/v).
Each killing assay comprised an untreated control (bacteria absent peptide) for every condition tested. After 1 h, 100 μL directly from the sample, as well as 5 μL of each dilution from a 10-fold serial dilution, were plated on either TSB agar (for S. aureus killing assays using aerobic conditions), rTSB agar (for S. aureus killing assays using anaerobic conditions), or rTSB agar with 2% glycerol (for C. acnes killing assays) in order to quantitate bacterial viability. The LOD for each experiment was 10 CFU/mL, with one exception. […] For statistical analysis, p-values were calculated using an unpaired t-test due to each lysin or peptide dose being compared individually to the untreated group. […]

[2] = system: C. acnes strain ATCC 6919; assay: Time-kill assay; assay type: cell-based, Cutibacterium acnes; conditions: 25 μg/mL, 20 mM Tris, pH 7.2, 37 °C, three biological replicates
Description: Using an EchoTherm chilling/heating plate, separate aliquots of both C. acnes strain ATCC 6919 at 10^6 CFU/mL and P156 at 50 μg/mL in 20 mM Tris, pH 7.2, were equilibrated to 37 °C for 10 min in 1.7 mL microcentrifuge tubes. The bacteria and peptide were then combined 1:1 in a microcentrifuge tube to obtain final concentrations of 5 × 10^5 CFU/mL and 25 μg/mL, respectively. An untreated control (bacteria without peptide) was also included. The samples were incubated for a total of 30 min at 37 °C. At 1, 5, 10, 15, 20, 25 and 30 min, an aliquot was removed. Both 100 μL directly from the sample, as well as 5 μL of each dilution from a 10-fold serial dilution, were plated on rTSB agar supplemented with 2% (v/v) glycerol in order to assess bacterial viability. The LOD was 10 CFU/mL. Error bars correspond to ±SEM of three biological replicates. For statistical analysis, p-values were calculated using an unpaired t-test between the untreated group and the peptide-treated group at each time point. ** p < 0.05 and a ≥3-log CFU reduction (with respect to the untreated group).

[3] = 25 μg/mL, ATCC 6919, 1 h, 37 °C

Molecule | stability after four weeks of storage at 4 °C [1] | lowest concentration reducing CFU counts of all S. aureus strains below the LOD (S. aureus; aerobic, strains 8325, USA300, USA400, LOD 10 CFU/mL) | log kill of all S. aureus strains tested (S. aureus; peptide at 5 μg/mL) | log CFU reduction of all S. aureus strains (below LOD) (S. aureus; peptide at 25 μg/mL) | log kill of MRSA strain USA300 grown under anaerobic conditions (S. aureus; peptide at 25 μg/mL, anaerobic, LOD 10 CFU/mL, triplicate) | log reduction of bacterial counts at each temperature assayed (C. acnes; 25 μg/mL, ATCC 6919, 15-40 °C, 1 h, peptide stored four weeks at 4 °C) | bactericidal effect at elevated pH levels (up to 7.6) (C. acnes; [3]) | bactericidal effect within pH 6-7 (C. acnes; [3]) | log reduction of C. acnes populations in 50 mM NaCl (C. acnes; [3]) | log CFU reduction (below LOD) at under 25 mM NaCl / lower salt concentrations (C. acnes; 25 μg/mL, ATCC 6919, 1 h, 37 °C, LOD 10 CFU/mL) | log reduction of C. acnes CFU counts (below LOD) at 20 °C to 40 °C (C. acnes; 25 μg/mL, ATCC 6919, 1 h, peptide stored four weeks at 4 °C, LOD 10 CFU/mL, triplicate) | antibacterial activity at high salt concentrations (C. acnes; 25 μg/mL, ATCC 6919, NaCl, 1 h, 37 °C) | log reduction of CFU counts at ≤50 mM NaCl (C. acnes; 25 μg/mL, ATCC 6919, buffer supplemented with NaCl, 1 h, 37 °C, triplicate) | log kill of all C. acnes strains tested (C. acnes; peptide at 5 μg/mL, seven strains, 20 mM Tris, pH 7.2, 1 h, 37 °C) | log CFU reduction of all C. acnes strains (below LOD) (C. acnes; peptide at 25 μg/mL, 20 mM Tris, pH 7.2, 1 h, 37 °C) | concentration lowering the viability of all C. acnes strains below the LOD (C. acnes; seven strains, 20 mM Tris, pH 7.2, 1 h, 37 °C, LOD 200 CFU/mL, duplicate) | log CFU reduction of S. aureus in the presence of 0.01-0.1% retinoic acid (S. aureus strain USA300; P156 at 25 μg/mL, LOD 10 CFU/mL) | log reduction in bacterial CFU in 10 min [2] | log reduction in bacterial CFU within 1 min [2] | antibacterial effect of retinoic acid alone on S. aureus (S. aureus strain USA300; 0.01-0.1% retinoic acid)
RRKAKAPRAEIYAQFNKWVYAGGKKLSGLVKRRRR [Peptide P156, variant peptide engineered by adding arginine residues at both the N- and C-terminal ends of the parental peptide PiP01] | remains stable and active | 5 µg/mL | ≥ 3 log | > 4 log CFU | > 5 log | > 4 logs | able to eradicate C. acnes | complete bacterial eradication | 3 logs | > 4 log CFU | > 5 logs | lack of antibacterial activity | > 3 log CFU | ≥ 3 log | > 4 log CFU | ≥ 5 µg/mL | > 5 log CFU | > 5 log | > 3 log | 
CC1=C(/C=C/C(C)=C/C=C/C(C)=C/C(=O)O)C(C)(C)CCC1 [retinoic acid, all-trans-retinoic acid, reference compound] |  |  |  |  |  |  |  |  |  |  |  |  |  |  |  |  |  |  |  | no antibacterial effect

From publication PMC12024193, “Engineered Lysin-Derived Peptide as a Potent Antimicrobial for Acne Vulgaris” (Antibiotics, 2025)
